The source of these data is ChEMBL document CHEMBL1143732, “3-Hydroxy-1,5-dihydro-pyrrol-2-one derivatives as advanced inhibitors of HIV integrase” (Bioorg Med Chem, 2007).

Molecules are shown by their SMILES.

Assay [1] is described as follows: Inhibition of HIV integrase by MWPA-Mn enzymatic assay. Also noted: species or system Human immunodeficiency virus.
Assay [2] in a line: Inhibition of HIV integrase by MWPA-Mg enzymatic assay. The arrangement: species or system Human immunodeficiency virus.
Assay [3] deals with Human immunodeficiency virus. Nature of the assay: Antiviral activity against HIV. The class given is functional, organism-based. Particulars: Human immunodeficiency virus 1.

One may read the IC50 as the concentration that inhibits the measured activity by half. A lower IC50 goes with higher potency. Usually EC50 stands for the midpoint of the concentration-response curve. High values mean a need for much substance, low ones an effect from little substance. With `CNC(=O)/C(O)=C/c1cc(CCc2ccccc2)ncn1`, the values for the IC50 in assay [1] and in assay [2] were 39000 nM and 11000 nM, respectively. In assay [3], this compound returned an EC50 of 24000 nM.

With `O=C(/C(O)=C/c1cc(CCc2ccccc2)ncn1)N1CCOCC1`, the results for the IC50 in assay [1] and in assay [2] were 262000 nM and 236000 nM, respectively. The half-maximal effective concentration (EC50) in assay [3] is > 59000 nM.

`CN1CC(c2cc(CCc3ccc(F)cc3)ncn2)=C(O)C1=O`: the IC50 in assay [1] and in assay [2] was 320 nM each time. This compound also registered an EC50 in assay [3] of 800 nM.

On to `CN1CC(c2cc(OCc3ccc(F)cc3)ncn2)=C(O)C1=O`, for which the IC50 in assay [1] came out at 300 nM; in assay [2], 63 nM. Also, in assay [3], a half-maximal response (EC50) required 320 nM.

`O=C1C(O)=C(c2cc(OCc3ccc(F)cc3)ncn2)CN1CCO` returned an IC50 in assay [2] of 46 nM. The compound also came in with a 50% effective concentration (EC50) in assay [3] of 380 nM.

The compound `COCCN1CC(c2cc(OCc3ccc(F)cc3)ncn2)=C(O)C1=O` displayed an IC50 in assay [2] of 53 nM. The compound also had an EC50 in assay [3] of 470 nM.

In assay [2], `CC(C)N1CC(c2cc(OCc3ccc(F)cc3)ncn2)=C(O)C1=O` came in with an IC50 of 82 nM. In addition, in assay [3], the EC50 was determined as 1400 nM.

In the case of `COc1ccc(CN2CC(c3cc(OCc4ccc(F)cc4)ncn3)=C(O)C2=O)cc1`, half-maximal inhibition in assay [2] (IC50) was put at 140 nM. For the same compound, a half-maximal effect in assay [3] (EC50) was put at 3300 nM.

Consider `O=C1NCC(C(=O)c2ccc(Cc3ccc(F)cc3)o2)=C1O`, for which the IC50 in assay [2] is 100 nM. Further, the EC50 in assay [3] came to 930 nM.

`CC(C)N1CC(C(=O)c2ccc(Cc3ccc(F)cc3)o2)=C(O)C1=O` gave an IC50 in assay [2] of 79 nM. The compound further had an EC50 in assay [3] of 550 nM.

For the compound `COCCN1CC(C(=O)c2ccc(Cc3ccc(F)cc3)o2)=C(O)C1=O`, the IC50 in assay [2] was 160 nM. In assay [3], this compound had an EC50 of 670 nM.

`COc1ccc(N2CC(C(=O)c3ccc(Cc4ccc(F)cc4)o3)=C(O)C2=O)cc1` returned an IC50 in assay [2] of 170 nM. The compound further displayed a 50% effective concentration (EC50) in assay [3] of 13000 nM.

Consider `O=C(O)/C(O)=C/c1cc(CCc2ccccc2)ncn1`, for which the IC50 in assay [1] came to 37 nM; in assay [2] it was 9600 nM. In assay [3], this compound registered an EC50 of 34000 nM.

For `NC(=O)/C(O)=C/c1cc(CCc2ccccc2)ncn1`, the IC50 amounted to 71000 nM in assay [1] and 6700 nM in assay [2]. The compound also displayed an EC50 in assay [3] of 49000 nM.

With `O=C(O)/C(O)=C/c1ccc(Oc2ccc(F)cc2)cn1`, the figures for the IC50 in assay [1] and in assay [2] were 110 nM and 8700 nM, respectively. Also, in assay [3], the EC50 is > 73000 nM.

For the compound `O=C(C1=C(O)C(=O)N(Cc2ccccc2)C1)c1ccc(Cc2ccc(F)cc2)o1`, half-maximal inhibition in assay [2] (IC50) required 180 nM. Besides, the concentration giving a half-maximal response (EC50) in assay [3] amounted to 7400 nM.

With `O=C(C1=C(O)C(=O)N(CCN2CCOCC2)C1)c1ccc(Cc2ccc(F)cc2)o1`, in assay [2], half-maximal inhibition (IC50) was put at 180 nM. The compound further registered an EC50 in assay [3] of 3400 nM.

With `O=C(O)/C(O)=C/c1cc(OCc2ccc(F)cc2)ccn1`, the IC50 was found to be 14 nM in assay [1] and 93 nM in assay [2]. For the same compound, in assay [3], it took 7900 nM to reach a half-maximal effect (EC50).

`O=C(C1=C(O)C(=O)N(C2CCCC2)C1)c1ccc(Cc2ccc(F)cc2)o1` returned an IC50 in assay [2] of 130 nM. Besides, the EC50 in assay [3] came out at 1500 nM.

For the compound `CN1CC(c2ccc(Cc3ccc(F)cc3)cn2)=C(O)C1=O`, the values for the IC50 in assay [1] and in assay [2] were < 21 nM and 37 nM, respectively. This compound showed an EC50 in assay [3] of 170 nM.

Take `O=C(O)/C(O)=C/c1cc(CCc2ccc(F)cc2)ccn1`: the concentration for half-maximal inhibition (IC50) in assay [1] is 59 nM; in assay [2], 1800 nM. Further, the EC50 in assay [3] is 27000 nM.

Consider `O=C1NCC(c2cc(OCc3ccc(F)cc3)ncn2)=C1O`, for which it took 40 nM to reach half-maximal inhibition in assay [2] (IC50). Further, a half-maximal response in assay [3] (EC50) required 240 nM.

In assay [2], `CN1CC(C(=O)c2ccc(Cc3ccc(F)cc3)o2)=C(O)C1=O` yielded an IC50 of 82 nM. The compound also returned an EC50 in assay [3] of 630 nM.

The compound `O=C(C1=C(O)C(=O)N(CCO)C1)c1ccc(Cc2ccc(F)cc2)o1` yielded a half-inhibitory concentration (IC50) in assay [2] of 75 nM. In assay [3], this compound showed an EC50 of 5500 nM.

For the compound `O=C(O)/C(O)=C/c1ccc(OCc2ccc(F)cc2)cn1`, the results for the IC50 in assay [1] and in assay [2] were 66 nM and 480 nM, respectively. The same compound had a 50% effective concentration (EC50) in assay [3] of 45700 nM.

With `O=C(O)/C(O)=C/c1ccc(Cc2ccc(F)cc2)cn1`, the IC50 was found to be 95 nM in assay [1] and 1400 nM in assay [2]. In assay [3], this compound gave an EC50 of 8800 nM.

With `CN1CC(c2ccc(OCc3ccc(F)cc3)cn2)=C(O)C1=O`, the values for the concentration for half-maximal inhibition (IC50) in assay [1] and in assay [2] were < 21 nM and 30 nM, respectively. In assay [3], this compound yielded an EC50 of 180 nM.

Consider `CN1CC(c2ccc(Oc3ccc(F)cc3)cn2)=C(O)C1=O`, for which the 50% inhibitory concentration (IC50) in assay [1] was < 21 nM; in assay [2] it was 80 nM. In addition, in assay [3], a half-maximal response (EC50) required 1900 nM.

On to `CCCN1CC(c2cc(OCc3ccc(F)cc3)ncn2)=C(O)C1=O`, for which, in assay [2], the IC50 came out at 270 nM. In addition, the EC50 in assay [3] is 9000 nM.

In turn, `O=C(/C=C(\O)c1nc[nH]n1)c1ccc(Cc2ccc(F)cc2)o1` [S-1360] returned an EC50 in assay [3] of 200 nM. In other words, the sub-micromolar range.
